Literature values in patent US20150291756A1, “PROCESS FOR THE PRODUCTION OF RIGID FOAMED OBJECTS MADE OF POLYMER MATERIALS” (priority 2013, published 2015).
Read-outs that look alike come from different tables or passages of the source.

Legend:
[1] = toxicological studies
[2] = substance as such
[3] = system: rats; conditions: 4-hour exposure, decomposition residues of the diazocompound (TSMN for AIBN)
[4] = recommended by OSHA, ACGIH, NIOSH
[5] = system: human; conditions: human inhalative exposure; BASF Risk Assessment study

SMILES | carcinogenic and genotoxic activity [1] | EU Hazard Classification [2] | Approximate Lethal Concentration Values by inhalation of its residues (ALC) [3] [mg/L] | occupational permissible exposure limit [4] [ppm] | occupational permissible exposure limit ([4]; equivalent of the ppm value) [mg/m^3] | tentative Derived No Effect Level (DNEL) [5] [μg/m^3]
NC(=O)N=NC(N)=O [ADC, Azodicarbonamide] | carcinogenic and genotoxic activity |  |  |  |  | 
CCC(C)(C#N)N=NC(C)(C#N)CC (stereo not shown) [AMBN, 2,2′-Azobis(2-methylbutanenitrile)] |  | Harmful | 8.7 |  |  | 
CC(C)(C#N)C(C)(C)C#N [TMSN, 2,2,3,3-tetramethylbutanedinitrile] |  |  | 0.1 | 0.5 | 3 | 25
